Values quoted from earlier work in US20090318377A1, “MEDICAGENIC ACID SAPONIN AND USES THEREOF” (MEDICAGO INC., priority 2006, published 2009).

System: Syrian Golden hamster
Conditions: average daily dose 128 mg/kg for 4 weeks

soyasaponin B
reduction in high-density lipoprotein (HDL): 33%
reduction in plasma cholesterol: 20%
reduction in triglycerides: 18%
